This is an account of results in article PMC9496228, “Plasma Clearance of Intravenously Infused Adrenomedullin in Rats with Acute Renal Failure” (Biomolecules, 2022).

Read-outs that look alike come from different tables or passages of the source.

A short description of series [1]: Human adrenomedullin 60-min continuous intravenous infusion study in rats, plasma pharmacokinetics. It counts as in vivo, rat. To be noted: mean ± SD; for level at time molar at 1 h / half-life / clearance: male, Lewis, rat, in vivo; for level at time molar at 1 h: 0.1 ug/kg/min, hAM iv infusion 0.1 µg/kg/min, read-out: Plasma AM concentration at 60 min after initiating treatment (AM C60); for half-life: read-out: T1/2β, half-life in the terminal phase after stopping infusion; for clearance: hAM iv infusion 0.1 µg/kg/min for 60 min, dose divided by AUC0–60, read-out: CLtotal, total systemic clearance. Here is the method: Renal dysfunction was induced by subcutaneous injection of 3 mg/kg mercury chloride (1 mg/mL saline) to rats (RD-Ag, n = 7) on the day before the adrenomedullin pharmacokinetic study. Control rats were treated with saline (normal renal function, NF, n = 5). Twenty-four hours after injection of mercury chloride (4 h before hAM administration), blood was collected from the tail vein of rats and serum creatinine (sCr) was measured using DRI-CHEM (FUJIFILM, Tokyo, Japan) to confirm the severity of renal damage. After the hAM administration study, the lungs and kidneys were removed from each group of rats, immersed in RNAlater (Thermo Fisher Scientific, Waltham, MA, USA), and frozen at −30 °C for later analysis.
Rats were subjected to cannulation at the beginning as described below. After laparotomy through a midline abdominal incision, the bilateral renal artery and vein of the rat were exposed and blocked with vascular clips to develop another model of renal dysfunction (RD-Bl, n = 3). Immediately after the vascular blockade, the rats were studied for hAM infusion experiment.
Rats under isoflurane anesthesia were placed on a heated surgical table in the supine position and subjected to cannulation (PE 50, Becton, Dickinson and Company, Franklin Lakes, NJ, USA) of the carotid artery and jugular vein. Human AM was dissolved in 20% mannitol to a concentration of 300 ng/mL and continuously administered at 0.1 µg/kg/min for 60 min via venous cannula using an infusion pump (KDS-100, KD Scientific, Holliston, MA, USA). After hAM administration had begun, 0.6 mL of whole blood was drawn from the arterial cannula at 0, 5, 10, 20, 30, 45, 60, 61.5, 63, 65, 70, 75, 80, and 90 min.
(§1) To measure plasma hAM concentrations, whole blood was collected with 2 mg/mL EDTA-2Na and 500 Kallikrein Inhibitory Units (KIU)/mL of aprotinin. Plasma was obtained by centrifugation at 10,000× g for 2 min at 4 °C and stored at −30 °C until the assays were performed. Plasma hAM concentration was measured using an automated immunoassay system (AIA-System, Tosoh Corporation, Tokyo, Japan) that was described previously, including intra- and inter-assay variations. This system is a one-step fluorescence sandwich immunoassay for the detection of human AM using two monoclonal antibodies against human AM(12–25) and AM(46–52).
Pharmacokinetic parameters in rats were calculated from individual plasma AM concentration vs time curves during and after 1 h intravenous infusion of hAM based on standard procedures. The area under the plasma concentration vs time curve (AUC0–60) was calculated during the first 60 min using a linear trapezoidal method, and the total systemic clearance (CLtotal) was calculated as the dose administered divided by AUC0–60. A plot of plasma concentration vs time after stopping hAM infusion yielded a biexponential curve. The elimination rate constant and half-life (T1/2β) in the terminal phase were calculated from individual plasma AM concentration vs time curves with a two-compartment model using the Solver tool in Microsoft Excel to minimize the sum of the squared residual values. Weighting was set to the standard deviation of plasma concentrations measured at each blood sampling point.

A short description of series [2]: Human adrenomedullin intraperitoneal administration study in E-RAMP2 KO and control mice, plasma concentration. The following applies: mouse, in vivo, ip, 50 ug/kg, mean ± SD, read-out: Plasma AM concentration; for level at time molar at 10 min: 10 min after 50 μg/kg hAM intraperitoneally; for level at time molar at 0.5 h: 30 min after 50 μg/kg hAM intraperitoneally. Here is the method:
E-RAMP2 KO mice (aged 9–10 weeks) were generated by intraperitoneal administration of 75 mg/kg tamoxifen suspended in corn oil (20 mg/mL) once daily for five consecutive days. Mice of the same strain treated only with corn oil were used as a control group. Three to four mice were prepared for each blood collection point.
as §1

The target of series [3] is AM receptor (CLR and RAMP2 or -3 heterodimeric receptors). To be noted: read-out: equilibrium dissociation constant for its receptor (Kd); cited from earlier work. The source says:
Therefore, the administered AM appears to bind almost exclusively to its receptor and undergo receptor-mediated clearance. The AM receptor is made up of CLR and RAMP2 or -3 heterodimeric receptors. RAMP2 or -3 is a molecular chaperone required for CLR transport to the cell surface as well as for specifying the affinity of CLR for AM [35]. The distribution of ^125I-labeled AM in ...

[4] abbreviates: RD-Bl rats (bilateral renal blood flow blockage, n = 3).

In the case of `CC[C@H](C)[C@H](NC(=O)[C@H](CCC(N)=O)NC(=O)[C@H](Cc1c[nH]cn1)NC(=O)[C@H](C)NC(=O)[C@H](CC(C)C)NC(=O)[C@H](CCCCN)NC(=O)[C@H](CCC(N)=O)NC(=O)[C@@H](NC(=O)[C@@H](NC(=O)[C@@H]1CSSC[C@H](NC(=O)CNC(=O)[C@H](Cc2ccccc2)NC(=O)[C@H](CO)NC(=O)[C@H](CCCNC(=N)N)NC(=O)[C@H](CC(C)C)NC(=O)CNC(=O)[C@H](CCC(N)=O)NC(=O)[C@H](Cc2ccccc2)NC(=O)[C@H](CC(N)=O)NC(=O)[C@H](CC(N)=O)NC(=O)[C@H](CCSC)NC(=O)[C@H](CO)NC(=O)[C@H](CCC(N)=O)NC(=O)[C@H](CCCNC(=N)N)NC(=O)[C@@H](N)Cc2ccc(O)cc2)C(=O)N[C@@H](CCCNC(=N)N)C(=O)N[C@@H](Cc2ccccc2)C(=O)NCC(=O)N[C@@H]([C@@H](C)O)C(=O)N1)[C@@H](C)O)C(C)C)C(=O)N[C@@H](Cc1ccc(O)cc1)C(=O)N[C@@H](CCC(N)=O)C(=O)N[C@@H](Cc1ccccc1)C(=O)N[C@H](C(=O)N[C@@H](CC(=O)O)C(=O)N[C@@H](CCCCN)C(=O)N[C@@H](CC(=O)O)C(=O)N[C@@H](CCCCN)C(=O)N[C@@H](CC(=O)O)C(=O)N[C@@H](CC(N)=O)C(=O)N[C@H](C(=O)N[C@@H](C)C(=O)N1CCC[C@H]1C(=O)N[C@@H](CCCNC(=N)N)C(=O)N[C@@H](CO)C(=O)N[C@@H](CCCCN)C(=O)N[C@H](C(=O)N[C@@H](CO)C(=O)N1CCC[C@H]1C(=O)N[C@@H](CCC(N)=O)C(=O)NCC(=O)N[C@@H](Cc1ccc(O)cc1)C(N)=O)[C@@H](C)CC)C(C)C)[C@@H](C)O` [AM, Human adrenomedullin], the “T1/2β, half-life in the terminal phase after stopping infusion” value in series [1] (RD-Ag rats (mercury chloride, n = 7), after 60-min iv infusion of hAM 0.1 µg/kg/min, two-compartment model) is recorded as 22.2 ± 9.8 min. Moreover, the level at time molar at 1 h in series [1] (setting [4]) is 0.0781 ± 0.0105 nM; in series [1] (iv, NF rats (n = 5)) it was 0.049 ± 0.0136 nM; in series [1] (iv, RD-Ag rats (mercury chloride, n = 7)), 0.162 ± 0.0887 nM. In addition, the half-life in series [1] (iv, 0.1 µg/kg/min, NF rats (n = 5), after 60-min iv infusion of hAM 0.1 µg/kg/min, two-compartment model) was 15 ± 1.4 min; in series [1] (RD-Bl rats (bilateral renal blood flow blockage, n = 3), after 60-min iv infusion of hAM 0.1 µg/kg/min, two-compartment model) it was 16.7 ± 1.8 min. Also, the clearance amounted to 752 ± 230 mL/min/kg in series [1] (iv, 0.1 µg/kg/min, NF rats (n = 5)); 192 ± 102 mL/min/kg in series [1] (iv, 0.1 µg/kg/min, RD-Ag rats (mercury chloride, n = 7)); 450 ± 68.9 mL/min/kg in series [1] (setting [4]). Further, the level at time molar at 10 min in series [2] (E-RAMP2 KO mice (n = 3–4)) turned out to be 3.98 ± 0.381 nM; in series [2] (control mice (Cont, n = 3–4)) it was 1.07 ± 0.595 nM. In addition, the level at time molar at 0.5 h in series [2] (E-RAMP2 KO mice (n = 3–4)) turned out to be 0.759 ± 0.234 nM; in series [2] (control mice (Cont, n = 3–4)), 0.118 ± 0.0737 nM. In series [3], the Kd is 0.3 to 0.6 nM.

As usually defined, the Kd is the equilibrium constant for the complex coming apart.
